The assay concerns HBV. Description: HBV-DNA Antiviral Assay Using HepG2.117 Cells (intracellular HBV DNA by qPCR). Type of assay: cell-based, hepatitis B virus (genotype D). Conditions: Hepatitis B virus, HepG2.117. Summed up: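 HepG2.117 cells (genotype D HBV, Tet-off) were induced by doxycycline withdrawal and treated for 3 days with 9 concentrations in 4-fold dilution, 2% DMSO final. Intracellular HBV DNA was measured by qPCR against a standard curve, with ATPlite viability read in parallel. EC50, EC90 and CC50 came from fits against the DMSO control.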
A general note: Quantitative PCR measures a nucleic acid by following its amplification.
Turning to `N#Cc1cc(C(=O)N2CCn3c(c(C(=O)NCc4ccccc4-c4ncccn4)n(-c4ccc(OC5CC5)cc4)c3=O)C2)ccc1Br` [Example 432, 7-(4-bromo-3-cyano-benzoyl)-2-[4-(cyclopropoxy)phenyl]-3-oxo-N-[(2-pyrimidin-2-ylphenyl)methyl]-6,8-dihydro-5H-imidazo[1,5-a]pyrazine-1-carboxamide], the EC50 lay in the range of 100 to 500 nM.
For `CC(NC(=O)c1c2n(c(=O)n1-c1ccc(OC3CC3)cc1)CCN(C(=O)c1ccc(Br)c(Cl)c1)C2)c1ccc(OCC(N)=O)cc1-n1cccn1` (racemic) [Example 379, 7-(4-bromo-3-chloro-benzoyl)-2-[4-(cyclopropoxy)phenyl]-3-oxo-N-[rac-(1R)-1-[4-(2-amino-2-oxo-ethoxy)-2-pyrazol-1-yl-phenyl]ethyl]-6,8-dihydro-5H-imidazo[1,5-a]pyrazine-1-carboxamide] the value was above 5000 nM; for `O=C(NCc1ccccc1-c1cocn1)c1c2n(c(=O)n1-c1ccc(OC3CC3)cc1)CCN(C(=O)c1ccc(Br)c(Cl)c1)C2` [Example 398, 7-(4-bromo-3-chloro-benzoyl)-2-[4-(cyclopropxy)phenyl]-N-[(2-oxazol-4-ylphenyl)methyl]-3-oxo-6,8-dihydro-5H-imidazo[1,5-a]pyrazine-1-carboxamide], below 100 nM; for `NC(=O)COc1ccc(CNC(=O)c2c3n(c(=O)n2-c2ccc(OC4CC4)cc2)CCN(C(=O)c2ccc(Br)c(Cl)c2)C3)c(F)c1` [Example 324, N-[[4-(2-amino-2-oxo-ethoxy)-2-fluoro-phenyl]methyl]-7-(4-bromo-3-chloro-benzoyl)-2-[4-(cyclopropoxy)phenyl]-3-oxo-6,8-dihydro-5H-imidazo[1,5-a]pyrazine-1-carboxamide], 100 to 500 nM.
For `COc1ccc(-n2c(C(=O)NCc3ccc4c(c3)OCCO4)c3n(c2=O)CCN(C(=O)c2ccc(Cl)c(Cl)c2)C3)cc1` [Example 91, 7-(3,4-dichlorobenzoyl)-N-(2,3-dihydro-1,4-benzodioxin-6-ylmethyl)-2-(4-methoxyphenyl)-3-oxo-6,8-dihydro-5H-imidazo[1,5-a]pyrazine-1-carboxamide] the value was 500 to 5000 nM.
For `O=C(NCc1ccccc1)c1c2n(c(=O)n1-c1ccc(N3CCOCC3)cc1)CCN(C(=O)c1ccc(Br)c(Cl)c1)C2` [Example 278, N-benzyl-7-(4-bromo-3-chloro-benzoyl)-2-(4-morpholinophenyl)-3-oxo-6,8-dihydro-5H-imidazo[1,5-a]pyrazine-1-carboxamide] the value was 100 to 500 nM.
For `CC(C)Oc1ccc(-n2c(C(=O)NCc3ccc4[nH]cnc4c3)c3n(c2=O)CCN(C(=O)c2ccc(Br)c(Cl)c2)C3)cc1` [Example 219, N-(1H-benzimidazol-5-ylmethyl)-7-(4-bromo-3-chloro-benzoyl)-2-(4-isopropoxyphenyl)-3-oxo-6,8-dihdyro-5H-imidazo[1,5-a]pyrazine-1-carboxamide], the EC50 is 500 to 5000 nM.
For `Cc1ccc(-n2c(C(=O)NCc3ccccc3)c3n(c2=O)CCN(C(=O)c2ccc(Br)c(Cl)c2)C3)cc1` [Example 123, N-benzyl-7-(4-bromo-3-chloro-benzoyl)-3-oxo-2-(p-tolyl)-6,8-dihydro-5H-imidazo[1,5-a]pyrazine-1-carboxamide] the value was 100 to 500 nM; for `C[C@@H](NC(=O)c1c2n(c(=O)n1-c1ccc(OC3CC3)cc1)C[C@H](C)N(C(=O)c1ccc(Br)c(Cl)c1)C2)c1ccccc1F` (mixture of isomers) [Example 322, (6SR)-7-(4-bromo-3-chloro-benzoyl)-2-[4-(cyclopropoxy)phenyl]-N-[(1R)-1-(2-fluorophenyl)ethyl]-6-methyl-3-oxo-6,8-dihydro-5H-imidazo[1,5-a]pyrazine-1-carboxamide], 100 to 500 nM; for `O=C(NCc1ccccc1-c1ncccn1)c1c2n(c(=O)n1-c1ccc(-n3cccn3)cc1)CCN(C(=O)c1ccc(Br)c(Cl)c1)C2` [Example 429, 7-(4-bromo-3-chloro-benzoyl)-3-oxo-2-(4-pyrazol-1-ylphenyl)-N-[(2-pyrimidin-2-ylphenyl)methyl]-6,8-dihydro-5H-imidazo[1,5-a]pyrazine-1-carboxamide], below 100 nM.
For `C[C@@H](NC(=O)c1c2n(c(=O)n1-c1ccc(OCC(F)(F)F)cc1)CCN(C(=O)c1ccc(Br)c(Cl)c1)C2)c1ccc(OC(C)(C)C(N)=O)cc1F` (stereo in doubt) [Example 337, 7-(4-bromo-3-chloro-benzoyl)-3-oxo-N-[rac-(1R)-1-[4-(2-amino-1,1-dimethyl-2-oxo-ethoxy)-2-fluoro-phenyl]ethyl]-2-[4-(2,2,2-trifluoroethoxy)phenyl]-6,8-dihydro-5H-imidazo[1,5-a]pyrazine-1-carboxamide] the value was 100 to 500 nM; for `COCCOc1ccc(-n2c(C(=O)NCc3ccccc3)c3n(c2=O)CCN(C(=O)c2ccc(Br)c(Cl)c2)C3)cc1` [Example 250, N-benzyl-7-(4-bromo-3-chloro-benzoyl)-2-[4-(2-methoxyethoxy)phenyl]-3-oxo-6,8-dihydro-5H-imidazo[1,5-a]pyrazine-1-carboxamide], 100 to 500 nM; for `COc1ccc(-n2c(C(=O)NCC3CC3)c3n(c2=O)CCN(C(=O)c2ccc(Cl)c(Cl)c2)C3)cc1` [Example 105, N-(cyclopropylmethyl)-7-(3,4-dichlorobenzoyl)-2-(4-methoxyphenyl)-3-oxo-6,8-dihydro-5H-imidazo[1,5-a]pyrazine-1-carboxamide], above 5000 nM.
For `C[C@@H](NC(=O)c1c2n(c(=O)n1-c1ccc(OCC(F)(F)F)cc1)CCN(C(=O)c1ccc(Br)c(Cl)c1)C2)c1cccc2nccnc12` (stereo in doubt) [Example 385, 7-(4-bromo-3-chloro-benzoyl)-3-oxo-N-[rac-(1R)-1-quinoxalin-5-ylethyl]-2-[4-(2,2,2-trifluoroethoxy)phenyl]-6,8-dihydro-5H-imidazo[1,5-a]pyrazine-1-carboxamide] the value was 100 to 500 nM.
The compound `COc1ccc([C@@H](C)NC(=O)c2c3n(c(=O)n2-c2ccc(-n4cccn4)cc2)CCN(C(=O)c2ccc(Br)c(Cl)c2)C3)cc1` [Example 454, 7-(4-bromo-3-chloro-benzoyl)-N-[(1R)-1-(4-methoxyphenyl)ethyl]-3-oxo-2-(4-pyrazol-1-ylphenyl)-6,8-dihydro-5H-imidazo[1,5-a]pyrazine-1-carboxamide] gave an EC50 of 100 to 500 nM.
For `O=C(NCc1ccccc1-n1cncn1)c1c2n(c(=O)n1-c1ccc(OC3CC3)cc1)CCN(C(=O)c1ccc(Br)c(Cl)c1)C2` [Example 422, 7-(4-bromo-3-chloro-benzoyl)-2-[4-(cyclopropoxy)phenyl]-3-oxo-N-[[2-(1,2,4-triazol-1-yl)phenyl]methyl]-6,8-dihydro-5H-imidazo[1,5-a]pyrazine-1-carboxamide] the value was below 100 nM; for `O=C(NCCc1ccccc1)c1c2n(c(=O)n1-c1ccccc1)CCN(C(=O)c1ccc(Br)c(Cl)c1)C2` [Example 28, 7-(4-bromo-3-chloro-benzoyl)-3-oxo-2-phenyl-N-(2-phenylethyl)-6,8-dihydro-5H-imidazo[1,5-a]pyrazine-1-carboxamide], 500 to 5000 nM.
In turn, `Cc1nc2c(CNC(=O)c3c4n(c(=O)n3-c3ccc(OCC(F)(F)F)cc3)CCN(C(=O)c3ccc(Br)c(Cl)c3)C4)cccc2o1` [Example 411, 7-(4-bromo-3-chloro-benzoyl)-N-[(2-methyl-1,3-benzoxazol-4-yl)methyl]-3-oxo-2-[4-(2,2,2-trifluoroethoxy)phenyl]-6,8-dihydro-5H-imidazo[1,5-a]pyrazine-1-carboxamide] returned an EC50 of 100 to 500 nM.
For `CN(Cc1ccccc1)C(=O)c1c2n(c(=O)n1-c1ccccc1)CCN(C(=O)c1ccc(Br)c(Cl)c1)C2` [Example 27, N-benzyl-7-(4-bromo-3-chloro-benzoyl)-N-methyl-3-oxo-2-phenyl-6,8-dihydro-5H-imidazo[1,5-a]pyrazine-1-carboxamide] the value was 500 to 5000 nM; for `CO[C@H]1CN(Cc2ccccc2)Cc2c3n(c(=O)n2C1)CCN(C(=O)c1ccc(Br)c(Cl)c1)C3` (stereo in doubt) [Example 310, rac-(11S)-13-benzyl-4-(4-bromo-3-chloro-benzoyl)-11-methoxy-4,7,9,13-tetrazatricyclo[7.5.0.0^2,7]tetradec-1-ene-8,14-dione], 100 to 500 nM.
For `COc1ccc(-n2c(C(=O)N[C@H](C)c3ccccc3)c3n(c2=O)CCN(C(=O)c2ccc(Br)c(Cl)c2)C3)cc1` (stereo in doubt) [Example 82, 7-(4-bromo-3-chloro-benzoyl)-2-(4-methoxyphenyl)-3-oxo-N-[rac-(1R)-1-phenylethyl]-6,8-dihydro-5H-imidazo[1,5-a]pyrazine-1-carboxamide] the value was 100 to 500 nM.
For `CNC(=O)c1ccc(-n2c(C(=O)NCc3ccccc3)c3n(c2=O)CCN(C(=O)c2ccc(Br)c(Cl)c2)C3)cc1` [Example 36, N-benzyl-7-(4-bromo-3-chloro-benzoyl)-2-[4-(methylcarbamoyl)phenyl]-3-oxo-6,8-dihydro-5H-imidazo[1,5-a]pyrazine-1-carboxamide] the value was above 5000 nM.
Compound `CC(NC(=O)c1c2n(c(=O)n1-c1ccc(OC3CC3)cc1)CCN(C(=O)c1ccc(Br)c(Cl)c1)C2)c1ccc(OC(F)F)cc1F` (racemic) [Example 314, 7-(4-bromo-3-chloro-benzoyl)-2-[4-(cyclopropoxy)phenyl]-3-oxo-N-[rac-(1S)-1-[4-(difluoromethoxy)-2-fluoro-phenyl]ethyl]-6,8-dihydro-5H-imidazo[1,5-a]pyrazine-1-carboxamide] had an EC50 of 100 to 500 nM.
`C[C@@H](NC(=O)c1c2n(c(=O)n1-c1ccc(OCC(F)(F)F)cc1)CCN(C(=O)c1ccc(Br)c(Cl)c1)C2)c1ccc(OCC(N)=O)cc1-n1cccn1` (stereo in doubt) [Example 381, 7-(4-bromo-3-chloro-benzoyl)-3-oxo-N-[rac-(1R)-1-[4-(2-amino-2-oxo-ethoxy)-2-pyrazol-1-yl-phenyl]ethyl]-2-[4-(2,2,2-trifluoroethoxy)phenyl]-6,8-dihydro-5H-imidazo[1,5-a]pyrazine-1-carboxamide] had an EC50 above 5000 nM.

By EC50 is commonly meant the concentration at which the effect is half-maximal. A high value points to lower potency in that assay.

Source of the values: US11591341B2 (ALIGOS THERAPEUTICS, INC., priority 2019, dated 2023).
